For experiment [1] the following is noted: 200 mg Fe/L of FDE, same rate of PFS and FS. The procedure:
The objective of Experiment 6 was to compare the effectiveness of ferric sulphate (FS) versus polyferric sulphate (PFS) to reduce methane emissions from treated effluent. Experiment 6 was conducted using the same large (3.5 m deep×0.5 m diameter) PVC pipes described in Experiment 5. The gas capture equipment and measurement process were also identical to that described in Experiment 5.
There were three treatments: (i) untreated FDE; (ii) TE produced using PFS and (iii) TE produced using FS. There were four replicates of each treatment set out in a randomised block design. Five hundred and sixty litres of farm dairy effluent were pumped from the FDE storage pond on Lincoln University Dairy Farm into each column leaving a head space height of 10 cm. The same rate of PFS and FS was used (200 mg Fe/L of FDE). The PFS and FS solution was mixed into the effluent for two minutes using a handheld electric drill fitted with a paddle stirrer.

Experiment [2] is described as follows: Experiment 7: glass jars, different sulphate and/or iron compounds, methane and hydrogen sulphide. The procedure: The objective of Experiment 7 was to measure the effect of different sulphate and/or iron compounds on emissions of methane and hydrogen sulphide gases from treated effluent. The experiment was conducted using the same 1.5 L glass jars and methods of measurement described in Experiment 2 above. There were 10 treatments: (i) untreated FDE, (ii) PFS treated effluent, (iii) calcium sulphate (CaSO4) treated effluent, (iv) potassium sulphate (K2SO4) treated effluent, (v) aluminium sulphate (Al2(SO4)3) treated effluent, (vi) magnesium sulphate (MgSO4) treated effluent, (vii) sodium sulphate (Na2SO4) treated effluent, (viii), ferrous sulphate (i.e. the divalent form of iron sulphate) (FeSO4) treated effluent, (ix) ferric chloride (FeCl3) treated effluent, and (x) ferrous chloride (FeCl2) treated effluent. The sulphate treatment chemicals were all used at the same rate of sulphate as applied in the PFS treatment (326 mg SO4/L) and the iron treatment chemicals were all used at the same rate of iron as applied in the PFS treatment (133 mg Fe/L).

The mark [3] stands for this setting: iron chemicals at 133 mg Fe/L, same iron rate as PFS treatment.

The results in this text go back to patent US12209038B2, “Effluent” (LINCOLN UNIVERSITY, priority 2019, dated 2025).

Read-outs that look alike come from different tables or passages of the source.

For `O=S(=O)([O-])[O-].O=S(=O)([O-])[O-].O=S(=O)([O-])[O-].[Fe+3].[Fe+3]` [FS, ferric sulphate], in experiment [1], the “effectiveness in reducing the methane emission flux compared with PFS” value was “equally as effective” and the “effectiveness in reducing the total amount of methane emitted compared with PFS” value is “equally as effective”.

As for `O=S(=O)([O-])[O-].[Ca+2]` [calcium sulphate], in experiment [2], the “amount of methane emitted from FDE” value is “can be reduced”; the “effectiveness in reducing methane emitted compared with PFS” value is “none of these chemicals were as effective as PFS”; the “emission of hydrogen sulphide (H2S)” value is listed as “continued to produce, or enhanced the production of”.

For `[Cl][Fe]([Cl])[Cl]` [ferric chloride], the “effectiveness in reducing methane emission compared with PFS” value in experiment [2] (setting [3]) was “not nearly as effective”.

On to `[Cl][Fe][Cl]` [ferrous chloride], for which the “effectiveness in reducing methane emission compared with PFS” value in experiment [2] (setting [3]) is “not nearly as effective”.

With `O=S(=O)([O-])[O-].[Fe+2]` [ferrous sulphate], the “effectiveness in reducing methane emission compared with PFS” value in experiment [2] is on record as “not nearly as effective”.

Take `O=S(=O)([O-])[O-].[Mg+2]` [magnesium sulphate]: in experiment [2], the “amount of methane emitted from FDE” value is recorded as “can be reduced”; the “effectiveness in reducing methane emitted compared with PFS” value was “none of these chemicals were as effective as PFS”; the “emission of hydrogen sulphide (H2S)” value is on record as “continued to produce, or enhanced the production of”.

As for `O=S(=O)([O-])[O-].[K+].[K+]` [potassium sulphate], in experiment [2], the “amount of methane emitted from FDE” value is “can be reduced”; the “effectiveness in reducing methane emitted compared with PFS” value is recorded as “none of these chemicals were as effective as PFS”; the “emission of hydrogen sulphide (H2S)” value is on record as “continued to produce, or enhanced the production of”.

As for `O=S(=O)([O-])[O-].[Na+].[Na+]` [sodium sulphate], in experiment [2], the “amount of methane emitted from FDE” value was “can be reduced”; the “effectiveness in reducing methane emitted compared with PFS” value was “none of these chemicals were as effective as PFS”; the “emission of hydrogen sulphide (H2S)” value was “continued to produce, or enhanced the production of”.
